In ChEMBL document CHEMBL1150509, “Cycloalkylpiperazines as HIV-1 protease inhibitors: enhanced oral absorption” (Bioorg Med Chem Lett, 1995) one finds IC95, IC50 and Ratio data, which are given here for 16 molecules.

The structures appear in SMILES notation.

Test [1] concerns Human immunodeficiency virus 1. Description: Tested in vitro against MT-4 human lymphoid cells infected with the type IIIb isolate. It counts as functional. The settings on record: Human immunodeficiency virus 1, lymphoid; read-out: CIC95.
For test [2], the target named is Human immunodeficiency virus type 1 protease (Human immunodeficiency virus 1, UniProt Q72874). Description: Tested in vitro for the ability to inhibit HIV-1 protease.
The subject of test [3] is Human immunodeficiency virus 1. The test can be described thus: Ratio of CIC95 to that of IC50 was determined. The test is classed as functional.

Take `CC(C)[C@@H]1[C@H](OC(=O)N[C@@H](Cc2ccccc2)[C@H](O)CN2CCN(C3CC3)C[C@H]2C(=O)NC(C)(C)C)CCS1(=O)=O`: the IC95 in test [1] turned out to be 100 nM.

Consider `CC(C)[C@@H]1[C@H](OC(=O)N[C@@H](Cc2ccccc2)[C@H](O)CN2CCN(C3CCC3)C[C@H]2C(=O)NC(C)(C)C)CCS1(=O)=O`, for which the IC95 in test [1] came to 50 nM.

In the case of `CC(C)[C@@H]1[C@H](OC(=O)N[C@@H](Cc2ccccc2)[C@H](O)CN2CCN(C3CCCC3)C[C@H]2C(=O)NC(C)(C)C)CCS1(=O)=O`, the IC95 in test [1] was 150 nM.

As for `CC(C)[C@@H]1[C@H](OC(=O)N[C@@H](Cc2ccccc2)[C@H](O)CN2CCN(C3Cc4ccccc4C3)C[C@H]2C(=O)NC(C)(C)C)CCS1(=O)=O`, half-maximal inhibition in test [2] (IC50) required 5.3 nM. For the same molecule, the IC95 in test [1] was 100 nM. Moreover, the Ratio in test [3] was 19.

Turning to `CC(C)[C@@H]1[C@H](OC(=O)N[C@@H](Cc2ccccc2)[C@H](O)CN2CCN(C3CCOCC3)C[C@H]2C(=O)NC(C)(C)C)CCS1(=O)=O`, in test [2], the IC50 (in general, the point on the concentration scale where inhibition reaches its midpoint) was 34.6 nM. Moreover, the IC95 in test [1] is over 200 nM.

For the molecule `CC(C)CN1CCN(C[C@@H](O)[C@H](Cc2ccccc2)NC(=O)O[C@@H]2CCS(=O)(=O)[C@@H]2C(C)C)[C@H](C(=O)NC(C)(C)C)C1`, in test [1], the IC95 worked out at 100 nM.

`CCC(CC)N1CCN(C[C@@H](O)[C@H](Cc2ccccc2)NC(=O)O[C@@H]2CCS(=O)(=O)[C@@H]2C(C)C)[C@H](C(=O)NC(C)(C)C)C1`: the IC95 in test [1] is over 200 nM.

In the case of `CC(C)[C@@H]1[C@H](OC(=O)N[C@@H](Cc2ccccc2)[C@H](O)CN2CCN(CC(C)(C)C)C[C@H]2C(=O)NC(C)(C)C)CCS1(=O)=O`, in test [1], the IC95 is 200 nM.

As to `CC(C)[C@@H]1[C@H](OC(=O)N[C@@H](Cc2ccccc2)[C@H](O)CN2CCN(C3CCSC3)C[C@H]2C(=O)NC(C)(C)C)CCS1(=O)=O` (some centres not stated), the IC50 in test [2] was found to be 8.3 nM. For the same molecule, the IC95 in test [1] is over 200 nM.

Regarding `CC(C)[C@@H]1[C@H](OC(=O)N[C@@H](Cc2ccccc2)[C@H](O)CN2CCN(C3CC(c4ccccc4)C3)C[C@H]2C(=O)NC(C)(C)C)CCS1(=O)=O` (some centres not stated), the half-inhibitory concentration (IC50) in test [2] is 3.8 nM. Also, the IC95 in test [1] came to 100 nM. For the same molecule, the Ratio in test [3] is listed as 26.

Take `CC(C)[C@@H]1[C@H](OC(=O)N[C@@H](Cc2ccccc2)[C@H](O)CN2CCN(C3CCCCCC3)C[C@H]2C(=O)NC(C)(C)C)CCS1(=O)=O`: the IC95 in test [1] was determined as 200 nM.

Turning to `CC(C)[C@@H]1[C@H](OC(=O)N[C@@H](Cc2ccccc2)[C@H](O)CN2CCN(C(C)C)C[C@H]2C(=O)NC(C)(C)C)CCS1(=O)=O`, the IC95 in test [1] is over 200 nM.

For `CC(C)[C@@H]1[C@H](OC(=O)N[C@@H](Cc2ccccc2)[C@H](O)CN2CCN(C3CCSCC3)C[C@H]2C(=O)NC(C)(C)C)CCS1(=O)=O`, in test [1], the IC95 is 200 nM.

As for `CC(C)[C@@H]1[C@H](OC(=O)N[C@@H](Cc2ccccc2)[C@H](O)CN2CCN(C3CCCCC3)C[C@H]2C(=O)NC(C)(C)C)CCS1(=O)=O`, in test [1], the IC95 came out at 200 nM.

`CCCN1CCN(C[C@@H](O)[C@H](Cc2ccccc2)NC(=O)O[C@@H]2CCS(=O)(=O)[C@@H]2C(C)C)[C@H](C(=O)NC(C)(C)C)C1`: the IC95 in test [1] stood at 100 nM.

As to `CCCCCCCCN1CCN(C[C@@H](O)[C@H](Cc2ccccc2)NC(=O)O[C@@H]2CCS(=O)(=O)[C@@H]2C(C)C)[C@H](C(=O)NC(C)(C)C)C1`, in test [1], the IC95 stood at 200 nM.
